This is an account of results in patent US8673943B2, “Fluorinated derivatives of deferiprone” (Apotex Technologies Inc., priority 2007, dated 2014).

Data set [1] in a line: Chemical stability studies in aqueous media, monitored by HPLC. The format is physicochemical. To be noted: for stability in 50 mM phosphate buffer at pH 7.4 or aqueous 0.01 N NaOH: HPLC Method 1; for stability in aqueous 0.01 N HCl and de-ionized water at pH 5.6: freshly prepared solutions. Here is the method: (2) de-ionized water at pH 5.6;
(3) 50 mM phosphate buffer at pH 7.4; and […]

The conditions of data set [2]: prior-art / published chelators; 1×10^−5 M chelator and 1×10^−6 M Fe(III); cited from earlier work.
A short description of data set [3]: In vivo pharmacokinetic (PK) and blood brain barrier (BBB) studies, cassette dosing. To be noted: tail vein injection, rat; for AUC brain* / AUC: normalized to 2 mg/kg dose; for Kp at 5 min / Kp / AUC: male, Sprague-Dawley; for Kp at 5 min / Kp: brain/plasma, intravenous; for Kp at 5 min: read-out: Brain/Plasma ratio at 5 min; for Kp: read-out: AUC brain/AUC plasma; for AUC: iv, plasma. Also on record: species or system male Sprague-Dawley rats. On the procedure: In vivo pharmacokinetic (PK) and blood brain barrier (BBB) studies were conducted in male Sprague-Dawley rats using cassette dosing. The topic of cassette dosing has been reviewed by Manitpisitkul, P. and White, R. E. (August 2004), Drug Discovery, Vol 9. No. 15, pp. 652-658. The mode of administration was through tail vein injection.

The format of data set [4] is physicochemical. An excerpt: The term “log kBMC” refers to the logarithm of the chromatographic capacity factor (reference retention time) in BMC, a special type of HPLC (Escuder-Gilabert, L., et al., Journal of Chromatography B, 2004, 807, 193-201). This analytical technique was used to correlate the log kBMC of 31 reference drug substances with known experimentally determined log BB values. A linear regression mathematical equation log BB=a(log kBMC)+b was obtained from these reference drug substances wherein a and b are constants. The log kBMC of the compounds of the present invention was measured by BMC. The experimental log kBMC of the compounds of the present invention was fit into the log BB=a(log KBMC) b equation to obtain a calculated log BB value. The calculated log BB is an indicator of the BBB penetration property of the compounds of the present invention.
FIG. 1 provides a table illustrating the physical properties of selected compounds of formula (I) according to the present invention. […] The chromatographic capacity factor kBMC of 31 reference drug substances with known experimentally determined log BB values were recorded (FIGS. 2 and 3). […] We used the above equation to compute a calculated log BB value of the compounds of the present invention as an estimate of the BBB penetration properties of the compounds. Deferiprone is known to penetrate the BBB and has a calculated log BB value of −1.05. […]

The conditions of data set [5]: pH 7.4; cited from earlier work.

Molecules are shown by their SMILES.

On to `Cn1ccc(=O)c(O)c1C(F)F` [(v), 2-difluoromethyl-3-hydroxy-1-methyl-1H-pyridin-4-one], for which, in data set [1], the “stability in 50 mM phosphate buffer at pH 7.4 or aqueous 0.01 N NaOH” value was “almost instantaneously hydrolysed to their corresponding aldehydes”; the “stability in aqueous 0.01 N HCl and de-ionized water at pH 5.6” value is “stable”; the “stability in pH 7.4 phosphate buffer and 0.01 M sodium hydroxide” value is listed as “unstable”.
As to `CNC(=O)c1c(O)c(=O)cc(C)n1C` [CP502], in data set [2], the “pFe(III) / pFe^3+” value is 21.
Broadly, the AUC is concentration integrated over time. Low readings indicate less exposure, high ones more exposure. Turning to `Cn1ccc(=O)c(O)c1CC(F)(F)F` [Apo6825, 3-hydroxy-1-methyl-2-(2,2,2-trifluoro-ethyl)-1H-pyridin-4-one], in data set [3], the “AUC brain*” value turned out to be 2730 ng·h/mL, the Kp at 5 min was 0.46, the Kp amounted to 0.6 and the AUC was found to be 4520 ng·h/mL. In data set [3], this compound came in with a Kα of 0.68 h⁻¹, a Kβ of 0.133 h⁻¹, a t1/2α of 1.02 h and a t1/2β of 5.21 h.
On to `Cn1cc(O)c(=O)cc1CF` [(D)], for which, in data set [1], the “stability in aqueous solution” value was “unstable”.
In the case of `Cc1cc(=O)c(O)c(C(O)C(F)(F)F)n1C` (stereo not drawn) [Apo6729, 3-hydroxy-1,6-dimethyl-2-(2,2,2-trifluoro-1-hydroxy-ethyl)-1H-pyridin-4-one], the “time stable in 0.1N HCl, 50 mM phosphate buffer pH 7.4 and 0.1 N NaOH” value in data set [1] (0.1N HCl, 50 mM phosphate buffer at pH 7.4, 0.1 N NaOH, room temperature) was “at least 21 hrs”.
On to `Cc1cc(=O)c(O)c(CF)n1C` [compound (C)], for which the “stability in aqueous solution” value in data set [1] is listed as “unstable”.
`Cc1c(O)c(=O)ccn1C` [Deferiprone, 3-hydroxy-1,2-dimethyl-1H-pyridin-4-one]: the “calculated log BB” value in data set [4] is given as −1.05. Moreover, in data set [3], the “AUC brain*” value amounted to 860 ng·h/mL, the Kp at 5 min turned out to be 0.45, the Kp is 0.79 and the AUC is 1080 ng·h/mL. Besides, in data set [3], the Kα is 1.36 h⁻¹, the Kβ is 0.215 h⁻¹, the t1/2α is on record as 0.51 h and the t1/2β is reported as 3.22 h. Further, in data set [5], the distribution coefficient was 0.17.
Turning to `Cn1cc(O)c(=O)cc1CF` [compound (vii), 2-fluoromethyl-5-hydroxy-1-methyl-1H-pyridin-4-one], the “fraction of compound remaining” value in data set [1] (50 mM phosphate buffer at pH 7.4, after 5 hrs) is listed as “about half”. For the same compound, the “time stable in MeOH” value in data set [1] (MeOH) was “at least 4 hrs”. Further, in data set [1] (aqueous 0.01 N NaOH), the “stability in aqueous 0.01 N NaOH” value was “decomposed rapidly”. Moreover, the “stability in pH 7.4 phosphate buffer and 0.01 M sodium hydroxide” value in data set [1] is listed as “unstable”.
For the compound `Cc1cc(=O)c(O)c(C(F)F)n1C` [(iv), 2-difluoromethyl-3-hydroxy-1,6-dimethyl-1H-pyridin-4-one], in data set [1], the “stability in 50 mM phosphate buffer at pH 7.4 or aqueous 0.01 N NaOH” value is listed as “almost instantaneously hydrolysed to their corresponding aldehydes”; the “stability in aqueous 0.01 N HCl and de-ionized water at pH 5.6” value is recorded as “stable”.
Regarding `Cc1c(O)c(=O)c(CC(F)(F)F)cn1C` [Apo6855, 3-Hydroxy-1,2-dimethyl-5-(2,2,2-trifluoro-ethyl)-1H-pyridin-4-one], in data set [3], the “AUC brain*” value was 580 ng·h/mL, the Kp at 5 min is 0.5, the Kp came to 0.65 and the AUC came out at 890 ng·h/mL. In data set [3], this compound yielded a Kα of 2.37 h⁻¹, a Kβ of 0.136 h⁻¹, a t1/2α of 0.29 h and a t1/2β of 5.10 h.
